Reference: patent US20230293526A1, “METHOD FOR TREATING CANCER WITH A REVERSE TRANSCRIPTASE INHIBITOR” (PrimeFour Therapeutics, Inc., priority 2020, published 2023)
pIC50: −log10 of the molar value.

Tested on: cancer cell lines
Assay: Cancer cell proliferation activity of representative nucleosides, CellTiterGlo 72 h (Example 7, Tables 8 and 9)
Type: cell-based
Outline: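 Cancer cell lines seeded and incubated at 37° C overnight, then exposed to nucleosides (final DMSO 0.1%) for 72 h at 37° C with 5% or 10% CO2. Viability read by CellTiterGlo luminescence and normalized to 0.1% DMSO (100%) and 10 μM staurosporine (0%) controls.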

Measured: pIC50

Cc1cn([C@H]2C[C@H](O)[C@@](C#N)(CO)O2)c(=O)[nH]c1=O [compound 31]
5.51: Homo sapiens, MHH-ES-1, 72 h, MHHES1, 72 h (Table 9)
5.29: Homo sapiens, HepG2, 72 h, HEPG2, 72 h (Table 9)
5.39: Homo sapiens, NCI-H23, 72 h, NCI-H23, 72 h (Table 9)
5.28: Homo sapiens, A673, 72 h, A673, 72 h (Table 9) | Homo sapiens, MDA-MB-436, 72 h, MDAMB436, 72 h (Table 9) | Homo sapiens, NCI-H82, 72 h, NCIH82, 72 h (Table 9) | Homo sapiens, U-87 MG, 72 h, U87MG, 72 h (Table 9)
5.45: Homo sapiens, LoVo, 72 h, 72 h (Table 9)
5.30: Homo sapiens, PLC-PRF-5, 72 h, PLCPRF5, 72 h (Table 9)
5.41: Homo sapiens, MINO, 72 h, 72 h (Table 9) | Homo sapiens, SU-DHL-6, 72 h, SU-DHL-6, 72 h (Table 9)
5.59: Homo sapiens, A204, 72 h, A204, 72 h (Table 9) | Homo sapiens, A-431, 72 h, A431, 72 h (Table 9)
5.26: Homo sapiens, DU-145, 72 h, DU145, 72 h (Table 9)
5.34: Homo sapiens, DLD-1, 72 h, DLD1, 72 h (Table 9) | Homo sapiens, SNB-75, 72 h, SNB75, 72 h (Table 9)
5.44: RD-ES, 72 h, RDES, 72 h (Table 9)
5.97: Homo sapiens, 22Rv1, 72 h, 22RV1, 72 h (Table 9)
5.50: Homo sapiens, Granta-519, 72 h, GRANTA-519, 72 h (Table 9) | Homo sapiens, SK-HEP1, 72 h, SKHEP1, 72 h (Table 9)
5.42: 72 h, MT3, 72 h (Table 9)
5.52: 72 h, T24, 72 h (Table 9)
5.55: Homo sapiens, NCI-H460, 72 h, NCIH460, 72 h (Table 9)
5.76: Homo sapiens, C-33-A, 72 h, C33A, 72 h (Table 9)
5.54: Homo sapiens, SK-LMS-1, 72 h, SKLMS1, 72 h (Table 9)
5.46: Homo sapiens, SK-BR-3, 72 h, SKBR3, 72 h (Table 9)
5.40: Homo sapiens, ACHN, 72 h, 72 h (Table 9)
5.37: Homo sapiens, WSU-NHL, 72 h, 72 h (Table 9)
5.60: Homo sapiens, THP-1, 72 h, THP-1, 72 h (Table 9)
4.84: Homo sapiens, SF-268, 72 h, SF268, 72 h (Table 9)
< 4.30: 72 h, 5637, 72 h (Table 9) | 72 h, CLS439, 72 h (Table 9) | 72 h, HS729, 72 h (Table 9) | 72 h, JAR, 72 h (Table 9) | 72 h, PC3, 72 h (Table 9) | 72 h, RD, 72 h (Table 9) | Homo sapiens, 786-0, 72 h, 786O, 72 h (Table 9) | Homo sapiens, A549, 72 h, A549, 72 h (Table 9) | Homo sapiens, A2780, 72 h, A2780, 72 h (Table 9) | Homo sapiens, A-375, 72 h, A375, 72 h (Table 9) | Homo sapiens, ASPC1, 72 h, ASPC1, 72 h (Table 9) | Homo sapiens, BT-20, 72 h, BT20, 72 h (Table 9) | Homo sapiens, CAKI-1, 72 h, CAKI1, 72 h (Table 9) | Homo sapiens, COLO 205, 72 h, COLO205, 72 h (Table 9) | Homo sapiens, COLO-678, 72 h, COLO678, 72 h (Table 9) | Homo sapiens, Ca-Ski, 72 h, CASKI, 72 h (Table 9) | Homo sapiens, Caco-2, 72 h, CACO2, 72 h (Table 9) | Homo sapiens, Calu-6, 72 h, CALU6, 72 h (Table 9) | Homo sapiens, EFO-21, 72 h, EFO21, 72 h (Table 9) | Homo sapiens, EJ-28, 72 h, EJ28, 72 h (Table 9) | Homo sapiens, HCT-15, 72 h, HCT15, 72 h (Table 9) | Homo sapiens, HCT-116, 72 h, HCT116, 72 h (Table 9) | Homo sapiens, HEK293, 72 h, HEK293, 72 h (Table 9) | Homo sapiens, HL-60, 72 h, HL-60, 72 h (Table 9) | Homo sapiens, HT-29, 72 h, HT29, 72 h (Table 9) | Homo sapiens, HT-1080, 72 h, HT1080, 72 h (Table 9) | Homo sapiens, HeLa, 72 h, 72 h (Table 9) | Homo sapiens, Hs-578T, 72 h, HS578T, 72 h (Table 9) | Homo sapiens, IGROV-1, 72 h, IGROV1, 72 h (Table 9) | Homo sapiens, IMR-90, 72 h, IMR90, 72 h (Table 9) | Homo sapiens, JEG-3, 72 h, JEG3, 72 h (Table 9) | Homo sapiens, JIMT-1, 72 h, JIMT1, 72 h (Table 9) | Homo sapiens, K562, 72 h, K-562, 72 h (Table 9) | Homo sapiens, Kasumi 1, 72 h, KASUMI-1, 72 h (Table 9) | Homo sapiens, L-363, 72 h, L-363, 72 h (Table 9) | Homo sapiens, MCF7, 72 h, MCF7, 72 h (Table 9) | Homo sapiens, MDA-MB-231, 72 h, MDAMB231, 72 h (Table 9) | Homo sapiens, MDA-MB-435, 72 h, MDAMB435, 72 h (Table 9) | Homo sapiens, MDA-MB-468, 72 h, MDAMB468, 72 h (Table 9) | Homo sapiens, MG-63, 72 h, MG63, 72 h (Table 9) | Homo sapiens, MIA PaCa-2, 72 h, MIAPACA2, 72 h (Table 9) | Homo sapiens, NCI-H292, 72 h, NCIH292, 72 h (Table 9) | Homo sapiens, OVCAR-3, 72 h, OVCAR3, 72 h (Table 9) | Homo sapiens, OVCAR-4, 72 h, OVCAR4, 72 h (Table 9) | Homo sapiens, PANC-1, 72 h, PANC1, 72 h (Table 9) | Homo sapiens, Panc1005, 72 h, PANC1005, 72 h (Table 9) | Homo sapiens, Ramos, 72 h, 72 h (Table 9) | Homo sapiens, SAOS-2, 72 h, SAOS2, 72 h (Table 9) | Homo sapiens, SF-295, 72 h, SF295, 72 h (Table 9) | Homo sapiens, SK-MEL-5, 72 h, SKMEL5, 72 h (Table 9) | Homo sapiens, SK-MEL-28, 72 h, SKMEL28, 72 h (Table 9) | Homo sapiens, SK-N-AS, 72 h, SKNAS, 72 h (Table 9) | Homo sapiens, SK-N-SH, 72 h, SKNSH, 72 h (Table 9) | Homo sapiens, SK-OV-3, 72 h, SKOV3, 72 h (Table 9) | Homo sapiens, SU-DHL10, 72 h, SU-DHL-10, 72 h (Table 9) | Homo sapiens, SW-620, 72 h, SW620, 72 h (Table 9) | Homo sapiens, TE-671, 72 h, TE671, 72 h (Table 9) | Homo sapiens, U2OS, 72 h, 72 h (Table 9) | Homo sapiens, UMUC3, 72 h, UMUC3, 72 h (Table 9) | Homo sapiens, UO-31, 72 h, UO31, 72 h (Table 9) | NCI-H358M, 72 h, NCIH358M, 72 h (Table 9) | PBMC, 72 h, 72 h (Table 9)
5.20: Homo sapiens, BXPC-3, 72 h, BXPC3, 72 h (Table 9)
5.31: 72 h, J82, 72 h (Table 9)
6.42: Homo sapiens, MV4-11, 72 h, MV4-11, 72 h (Table 9)
